Assay results from patent US10286038B2, “Lysosome membrane protein 2 (LIMP-2) based peptides and related uses” (Northwestern University, priority 2016, dated 2019).
Where a chain is given by its changes, count along the chain named.

What was measured:
[1] = target: T1, recombinant GC (Cerezyme) (Homo sapiens, UniProt P04062, R534H); experiment: recombinant GC activity assay; assay type: biochemical; conditions: tenfold molar excess of peptide, acid pH, relative to buffer control
T1 construct: purchased Genzyme Therapeutics, Boston, USA
T1 sequence (P04062 40-536 R534H): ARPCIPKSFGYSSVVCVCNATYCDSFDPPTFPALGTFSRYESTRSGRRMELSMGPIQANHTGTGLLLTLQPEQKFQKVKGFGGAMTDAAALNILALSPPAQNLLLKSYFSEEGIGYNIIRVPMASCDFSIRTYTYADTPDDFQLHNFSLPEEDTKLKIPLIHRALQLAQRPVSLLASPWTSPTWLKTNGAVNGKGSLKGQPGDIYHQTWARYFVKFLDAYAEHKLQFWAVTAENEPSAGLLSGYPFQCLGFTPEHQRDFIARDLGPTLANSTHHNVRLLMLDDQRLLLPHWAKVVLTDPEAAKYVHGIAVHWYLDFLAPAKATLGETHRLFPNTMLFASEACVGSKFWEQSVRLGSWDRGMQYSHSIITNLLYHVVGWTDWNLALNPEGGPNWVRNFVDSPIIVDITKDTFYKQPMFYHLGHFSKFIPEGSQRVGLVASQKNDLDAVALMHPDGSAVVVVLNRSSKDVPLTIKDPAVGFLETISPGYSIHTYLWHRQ
Procedure: Expression plasmids of LIMP-2 and human GC constructs were generated as described previously (1). For Western blotting nitrocellulose or PVDF membranes were used. EndoH/PNGaseF digests were performed according to manufacturer's instructions (New England Biolabs, Ipswich, USA). For co-immunoprecipitation experiments magnetic agarose G beads (Thermo Fisher Scientific, Waltham, USA) were utilized. Immunofluorescence studies were performed in cells as previously described (1, 3). Cellular co-localization of two proteins was determined by the Pearson's Index (35). Enzyme activity assays of cell lysates or recombinant protein were measured at acid pH using absorbent and fluorescent artificial substrates. For peptide studies, peptides were N-terminally tagged with biotin. If not stated otherwise, recombinant enzyme was incubated with a tenfold higher molarity of peptides. Conditions for pulldown experiments were kept at neutral pH. Protein modelling, molecular analyses, graphics and animations were performed with the UCSF Chimera package.
(§1) To determine the enzymatic activity of the recombinant enzymes, lyophilized enzymes were reconstituted in the NaPi buffer described above. The lyophilized samples of wild-type GC (Cerezyme®) and the custom-made recombinant N307S mutant enzyme contain 0.01% polysorbate 80 (Tween 80) (see prescription information for Cerezyme® at the website for Cerezyme®). As indicated in our experiments, the concentration of the detergent is sufficient to support active GC enzyme and to perform the in vitro GC activity assays without adding further detergents to the reaction mix. For enzyme activity assays of recombinant proteins, 0.1-0.2 nmol of GC (Cerezyme®; N370S) and LAMAN were used in the absence or presence of 10× the molar amount of LIMP-2-derived peptides (Table 1) or LIMP-2 ectodomain (1-2 nmol) (Table 3).
All activity assays were performed at acid pH.

[2] = target: T2, recombinant N370S mutant GC (Homo sapiens, UniProt P04062, N409S); experiment: activity assay of recombinant N370S mutant GC (4-MU substrate); assay type: biochemical; conditions: cell-free, tenfold molar amount of peptide, relative to buffer control
T2 sequence (P04062 40-536 N409S): T1 sequence (P04062 40-536 R534H) with N370S, H495R
From the text: as §1, with “For enzyme activity assays of recombinant proteins, 0.1-0.2 nmol of GC (Cerezyme®; N370S) and LAMAN were used in the absence or presence of 10× the molar amount of LIMP-2-derived peptides (Table 1) or LIMP-2 ectodomain (1-2 nmol) (Table 3).” left out
Using the fluorescent substrate 4-MU (FIG. 3K), 10 μL of the recombinant enzyme/peptide mixture (0.1 nmol GC/N370S previously incubated with 1 nmol helix 5 TAT peptide in 50 mM NaPi buffer; total incubation volume 40 μL) were incubated directly with 60 μL of 0.2 M sodium citrate buffer and 10 μL of the substrate (5 mM dissolved in 0.2 M sodium citrate buffer) in a black-bottomed 96-well dish (Nunc no. 446473; Thermo Fisher Scientific). […] The fluorescence was assessed at an excitation wavelength of 365 nm and an emission wavelength of 445 nm in a SpectraMax i3 plate reader (Molecular Devices). […]

| Substance | increase of recombinant GC enzyme activity [1] | increase of recombinant GC enzyme activity ([1]; listed as LIMP-2-derived helix 5 peptide) | increase in the activity of the N370S mutant GC [2] |
| --- | --- | --- | --- |
| Biotin-Ttds-LREIIEAMLKAYQQKLFVTHTVDE [helix 5 peptide] | five times | five-fold increase |  |
| Biotin-Ttds-KFERQLREIIEAMLKAYQQKLFVTHTVDEYGRKKRRQRRR [helix 5 TAT-peptide] | comparable effect |  | four-fold increase |
